Experimental data reported in publication PMC7326275 (PLoS Pathogens, 2020).
Marks after values point to notes of the source that are not given here.

Experiments:
[1] = system: H1N1pdm09 (H275Y) virus (A/Perth/261/2009); design: species or system ferret; AUC (total area under the viral shedding curve, raw data): unit not given beside the values; settings: in vivo
[2] = system: H1N1 (H275Y) virus (A/Mississippi/3/2001 clone); design: species or system ferret; AUC (total area under the viral shedding curve, raw data): unit not given beside the values; settings: in vivo
H1N1pdm09 (H275Y) virus = system: H1N1pdm09 (H275Y) virus; design: species or system Cynomolgus macaques (Macaca fascicularis); settings: cynomolgus monkey, in vivo
[3] = system: B (D197N) virus (B/Singapore/GP702/2015); design: species or system ferret; AUC (total area under the viral shedding curve, raw data): unit not given beside the values; settings: in vivo
[4] = system: H3N2 (E119V) virus (A/Fukui/45/2004); design: species or system ferret; AUC (total area under the viral shedding curve, raw data): unit not given beside the values; settings: in vivo
[5] = system: B (H273Y) virus (B/Perth/265/2015); design: species or system ferret; AUC (total area under the viral shedding curve, raw data): unit not given beside the values; settings: in vivo

SMILES: CCOC(=O)C1=C[C@@H](OC(CC)CC)[C@H](NC(C)=O)[C@@H](N)C1 [OST, oseltamivir]
- % Ferrets Infected [1]: 100 (4/4) %
- AUC (total area under the viral shedding curve, raw data) [1]: 23.4 ± 4.4
- Activity loss clinical score [1]: 3 (key: ≤20; 21–40; 2: 41–60; 3: >60)
- Duration of Shedding [1]: 6.0 ± 1.4 days
- Nasal inflammation Cell score [1]: 3 (key: <1X10^6; 1 to 2 x10^6; 2.1 to 4 x10^6; 3: >4x10^6)
- Nasal inflammation Protein score [1]: 3 (key: <500; 500–1000; 2: 1001–1500; 3: >1500)
- Peak Viral Titre [1]: 5.2 ± 0.6 Log10 TCID50/ml
- Temperature clinical score [1]: 3 (key: 0: <1; 1.1–1.5; 1.5–2.0; 3: >2.0)
- Total Score (clinical signs) [1]: 15
- Weight loss clinical score [1]: 3 (key: 0: Weight increase or no change; 1–3; 2: 3–6; 3: >6)
- % Ferrets Infected [2]: 100 (4/4) %
- AUC (total area under the viral shedding curve, raw data) [2]: 18.2 ± 4.3
- Activity loss clinical score [2]: 3 (key: ≤20; 21–40; 2: 41–60; 3: >60)
- Duration of Shedding [2]: 5.2 ± 1.25 days
- Nasal inflammation Cell score [2]: 1 (key: <1X10^6; 1 to 2 x10^6; 2.1 to 4 x10^6; 3: >4x10^6)
- Nasal inflammation Protein score [2]: 0 (key: <500; 500–1000; 2: 1001–1500; 3: >1500)
- Peak Viral Titre [2]: 4.6± 0.5 Log10 TCID50/ml
- Temperature clinical score [2]: 2 (key: 0: <1; 1.1–1.5; 1.5–2.0; 3: >2.0)
- Total Score (clinical signs) [2]: 7
- Weight loss clinical score [2]: 1 (key: 0: Weight increase or no change; 1–3; 2: 3–6; 3: >6)
- body weight or temperature, OST- vs placebo-treated animals (H1N1pdm09 (H275Y) virus): no significant differences
- lower viral titre in tracheal lavages of OST dosed macaques on Day 3 (H1N1pdm09 (H275Y) virus): not observed
- viral titres in nasal wash and tracheal lavages, OST vs placebo (H1N1pdm09 (H275Y) virus): not significantly different
- % Ferrets Infected [3]: 100 (4/4) %
- AUC (total area under the viral shedding curve, raw data) [3]: 12.6 ± 2.3
- Activity loss clinical score [3]: 1 (key: ≤20; 21–40; 2: 41–60; 3: >60)
- Duration of Shedding [3]: 4.2 ± 1.0 days
- Nasal inflammation Cell score [3]: 0 (key: <1X10^6; 1 to 2 x10^6; 2.1 to 4 x10^6; 3: >4x10^6)
- Nasal inflammation Protein score [3]: 0 (key: <500; 500–1000; 2: 1001–1500; 3: >1500)
- Peak Viral Titre [3]: 4.5 ± 0.5 Log10 TCID50/ml
- Temperature clinical score [3]: 0 (key: 0: <1; 1.1–1.5; 1.5–2.0; 3: >2.0)
- Total Score (clinical signs) [3]: 1
- Weight loss clinical score [3]: 0
- viral titre on the single day with significant difference to placebo [3]: 4.1 ± 0.4 Log10 TCID50/ml
- % Ferrets Infected [4]: 62 (5/8) %
- AUC (total area under the viral shedding curve, raw data) [4]: 6.0 ± 7.7
- Activity loss clinical score [4]: 0 (key: ≤20; 21–40; 2: 41–60; 3: >60)
- Duration of Shedding [4]: 3.8 ± 0.5 days
- Nasal inflammation Cell score [4]: 0 (key: <1X10^6; 1 to 2 x10^6; 2.1 to 4 x10^6; 3: >4x10^6)
- Nasal inflammation Protein score [4]: 0 (key: <500; 500–1000; 2: 1001–1500; 3: >1500)
- Peak Viral Titre [4]: 4.8 ± 0.4 Log10 TCID50/ml
- Temperature clinical score [4]: 0 (key: 0: <1; 1.1–1.5; 1.5–2.0; 3: >2.0)
- Total Score (clinical signs) [4]: 0
- Weight loss clinical score [4]: 0
- % Ferrets Infected [5]: 100 (4/4) %
- AUC (total area under the viral shedding curve, raw data) [5]: 13.5 ± 1.0
- Activity loss clinical score [5]: 1 (key: ≤20; 21–40; 2: 41–60; 3: >60)
- Duration of Shedding [5]: 5.2 ± 0.5 days
- Nasal inflammation Cell score [5]: 0 (key: <1X10^6; 1 to 2 x10^6; 2.1 to 4 x10^6; 3: >4x10^6)
- Nasal inflammation Protein score [5]: 0 (key: <500; 500–1000; 2: 1001–1500; 3: >1500)
- Peak Viral Titre [5]: 3.8 ± 0.6 Log10 TCID50/ml
- Temperature clinical score [5]: 0 (key: 0: <1; 1.1–1.5; 1.5–2.0; 3: >2.0)
- Total Score (clinical signs) [5]: 1
- Weight loss clinical score [5]: 0
